The values that follow come from patent publication US11540515B2, “Use of dialkoxybenzenes for control of honey bee mite varroa destructor” (Simon Fraser University, priority 2018, dated 2023).

The subject of one data set is Varroa foreleg. In words: Electroantennography (EAG) on Varroa foreleg stimulated with nurse bee headspace odor. On the set-up: species or system Varroa destructor. The source says:
In the electroantennography (EAG), the Varroa foreleg or bee antennae were used for the assay. The organs were stimulated by puffs of nurse honeybee odor, or clean air (control). Briefly, once a foreleg or bee antenna preparation was found responsive to a positive stimulus, the tested chemical was blown over the leg/antenna with or without positive stimuli. Headspace of five nurse bees was used as a positive stimulus. This stimuli were selected for Varroa following the procedure described, for example, in Eliash, N. et al., (2014) PLoS One, (2014) 9(12): e116127, incorporated herein by reference in its entirety, and following dose response tests on nurse antennae challenged with headspace of 1, 5 and 10 nurse or forager bees. Electrophysiological responses of isolated Varroa foreleg and bee antennae were recorded using Synthech equipment, and the order of stimuli was as explained in Singh, K. N. et al., (2014) Apidologie, 46: 380-391, incorporated herein by reference in its entirety. The response amplitude was recorded for each stimulus and normalized relative to air.

The subject of a further data set is Varroa mites. The experiment in a line: Evaluation of acaricidal effect: emerging bees loaded with Varroa mites in glass petri dish, compound on Parafilm. It counts as in vivo, Varroa destructor. How it is done: The effect of the compounds was checked in free moving-mites freshly collected from the bottom board using fine paint brush. All collected Varroa were kept on emerging bees at room temperature until the experiment.
Compounds (code-labeled, Table 1) were prepared in hexane:ethyl acetate (1:1) in 10 mM concentration according to instructions. Dilutions only of compound “A” was prepared. […] This setup enabled the testing of all the compounds and to save the mites.
The assay was conducted in glass petri dish (90 mm diameter and 17 mm deep glass) containing moistened filter paper. Five emerging bees loaded with two Varroa mites were put into each plate. The bees were provided with candy (60% of pollen and 40% sugar). 10 μl or 30 μl volume of each compound or control mix was placed on Parafilm paper (5×5 cm) on the plates cover.

The subject of data set [1] is Varroa mites in honey bee colony. The experiment in a line: Colony test with solid 3c{3,6} in organza bags. The format is in vivo, Varroa destructor. Conditions: after each addition of solid compound in sachets. As for the experimental part:
Colony test. One colony of two supers was treated with solid 3c{3,6}, delivered in organza bags. The colony was otherwise healthy (apart from having Varroa mites), and the bee cluster reached over both boxes. Above the top box was placed a queen excluder and a top-feeding box. The following treatments were done: i) Day 1: 4×60 mg with bags placed above the cluster in the top box (below the queen excluder) only; ii) After 30 days: 4×60 mg with bags placed above the cluster in the top box (below the queen excluder) only; iii) After an additional 14 days, 4×100 mg with two bags placed on top of the lower box (i.e. between the two boxes) and two bags placed on top of the cluster on the top box (just below the queen excluder) iv) After an additional 7 days, 4×100 mg was added and the bags from the previous week were kept in. On the third treatment two Pasteur pipettes with Porapak (wedged between glass wool plugs in the pipette) were installed, one in the middle of the top cluster, the other on the edge of the cluster. These were removed. The colony was fitted with a screened bottom platform and a white Varroa counting drawer underneath the screen. Mites on the counting drawer board were counted every few days.
Porapak cartridges were extracted with hexane:ethyl acetate (4:1) with 40 ng/μL of 1,4-dimethoxybenzene as internal standard. […]

The subject of data set [2] is Varroa. The experiment in a line: Example 5 Varroa death and paralysis assay, single compounds and blend. On the set-up: species or system Varroa destructor. Conditions: in vivo. As for the experimental part: Assays were done in 9 cm glass Petri dishes. A 2.5×2.5 cm piece of Parafilm was stuck to the lid of the dish, in the middle. 120 μL water were put on filter paper in the middle of the plate. The Parafilm received 10 μL of hexane, either pure (controls) or with the compound (treatments). The bottom of the dish received one freshly thawed nurse and one freshly thawed forager, placed at opposite sides. One mite was placed between the nurse and the forager, the lid was closed and groups of dishes were placed in an incubator at 30° C. Observation times were at 3 h, 5 h and 20 h. Mites were scored for whether the mite could move normally, was paralyzed (had difficulty moving) or dead (not moving). Four types of experiment were performed in the dishes: i) dose response assays with a single compound at different doses of compound on the Parafilm (1 ng, 10 ng, 100 ng, 1 μg, 10 μg, 100 μg, 1 mg) an assay with blends of compounds 3c{3,6} and 3c{6,6} (pure or 1:1 blend) at 0.5 mg and […].

The subject of data set [3] is Varroa. In words: Choice bioassay (forager vs nurse bee) in petri dish. It counts as in vivo, Varroa destructor. To be noted: in presence of compound, monitored for 3 hours. As for the experimental part:
Functional activity of the compound was performed using choice bioassay. Briefly, in the presence of the synthetic compound or solvent as a control, the mites were given a choice of two bees (a forager and a nurse) in a petri dish (90 mm diameter and 17 mm deep glass). The movement of Varroa and its host preference were monitored at every hour for 3 hours.

In a further data set the test system is young bees. The experiment in a line: Example 2 assay on mites phoretic on young bees: condition of the bees. It counts as in vivo, Apis mellifera. Conditions: end of experiment. How it is done: The experiments were conducted in glass petri dish under control environment as described above in Example 1. Two sets of experiments were conducted compound 3c{3,6}:
2. Assay on mites phoretic on young bees. In this experiment 100 microgram/μ1 solution and its dilutions were used. Two mites were placed on each living young bee.
In the second assay the percentage of mites dropping from bees as function of time was measured (FIG. 2).

In another data set the test system is Varroa destructor mites. The experiment in a line: Example 3 mite paralysis/death in the absence of bees. The format is in vivo. Conditions: no bees. How it is done: Experiments were performed in the dishes: i) dose response assays with a single compound at different doses of compound on the Parafilm (1 ng, 10 ng, 100 ng, 1 μg, 10 μg, 100 μg, 1 mg and 10 mg), ii) a screen with six compounds, all at a 1 mg dose, iii) an assay with blends of compounds 3c{3,6} and 3c{6,6}, and iv) one assay without bees (only to check for mite paralysis and death), with compounds 3c{3,6} and 3c{6,6}(pure or 1:1 blend), at 0.5 and 1 mg doses.
Compounds 3c{3,6}, 3c{6,6} were tested on mites in the absence of bees, alone and as a 1:1 blend. Mite paralysis and death were checked every 30 min, up to 4.5 h after initial exposure. Four doses were tested: 0.2, 0.5, 1 and 10 mg.

As to `C=CCOc1ccc(OCCC)cc1` [3c{3,6}, 1-allyloxy-4-propoxybenzene], the “Varroa foreleg responses towards head space odor of nurse bees” value with Varroa foreleg is listed as “decreases”. In the data set on Varroa mites (dilutions of 10 mM solution, any concentration), the “miticidal effect of dilutions” value is listed as “no miticidal effect”. For the same molecule, the acaricidal effect entry in the data set on Varroa mites (highest amount tested (30 μl), end of 24 h) was “clear acaricidal effect”. Moreover, the “number of mites found on the bottom board per day” value in data set [1] is “spike in the number of mites”. In the data set on Varroa [2], the acaricidal activity alone entry is on record as “acaricidal”. Also, the “ability of Varroa to reach any host” value in the data set with Varroa [3] is recorded as “decreased”. The condition of bees entry with young bees is “remained in perfect shape”. In addition, the “mite paralysis+death” value in the data set with Varroa destructor mites (0.2 mg, 4.5 h) came out at 40%; in the data set on Varroa destructor mites (0.5 mg, 4.5 h) it was 80%. For the same molecule, the “mite paralysis or death” value amounted to 100% in the data set with Varroa destructor mites (1 mg, up to 4.5 h) and 100% in the data set with Varroa destructor mites (10 mg, 4.5 h).
